Measured values as given in patent US10780090B2, “Heteroaryl compounds useful as inhibitors of SUMO activating enzyme” (Millennium Pharmaceuticals, Inc., priority 2014, dated 2020).

Target: recombinant human SAE enzyme (Homo sapiens (Human), UniProt Q9UBT2)
Test: SAE HTRF enzyme assay
Assay type: biochemical
Details: for inhibition at 0.111 µM: read-out: Percent Inhibition
Outline: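 Sumoylation of Ubc9-GST by SAE was followed at low ATP (0.5 μM), pH 7.5, 24° C. for 105 min. Product was detected by HTRF with antibody pairs against Flag and GST tags.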

recombinant human SAE enzyme, sequence (Q9UBT2 whole entry): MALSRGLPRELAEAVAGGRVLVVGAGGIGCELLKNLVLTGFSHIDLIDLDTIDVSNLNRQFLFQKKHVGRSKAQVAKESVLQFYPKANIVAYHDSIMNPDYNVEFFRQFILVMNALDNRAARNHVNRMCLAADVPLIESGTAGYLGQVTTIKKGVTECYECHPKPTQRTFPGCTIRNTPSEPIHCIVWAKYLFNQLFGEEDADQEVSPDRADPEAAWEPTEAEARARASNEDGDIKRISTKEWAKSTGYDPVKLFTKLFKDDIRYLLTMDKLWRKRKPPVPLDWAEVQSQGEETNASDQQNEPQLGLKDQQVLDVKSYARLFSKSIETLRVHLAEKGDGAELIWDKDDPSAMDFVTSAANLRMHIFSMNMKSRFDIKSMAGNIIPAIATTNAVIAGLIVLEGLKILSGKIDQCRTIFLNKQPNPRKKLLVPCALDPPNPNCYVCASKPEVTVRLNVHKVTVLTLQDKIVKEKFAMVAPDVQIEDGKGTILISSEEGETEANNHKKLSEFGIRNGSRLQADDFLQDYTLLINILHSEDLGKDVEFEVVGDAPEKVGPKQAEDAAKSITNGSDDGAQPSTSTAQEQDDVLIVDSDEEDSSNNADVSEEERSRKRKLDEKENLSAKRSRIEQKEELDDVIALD
recombinant human SAE enzyme, sequence (Q9UBE0 whole entry partner): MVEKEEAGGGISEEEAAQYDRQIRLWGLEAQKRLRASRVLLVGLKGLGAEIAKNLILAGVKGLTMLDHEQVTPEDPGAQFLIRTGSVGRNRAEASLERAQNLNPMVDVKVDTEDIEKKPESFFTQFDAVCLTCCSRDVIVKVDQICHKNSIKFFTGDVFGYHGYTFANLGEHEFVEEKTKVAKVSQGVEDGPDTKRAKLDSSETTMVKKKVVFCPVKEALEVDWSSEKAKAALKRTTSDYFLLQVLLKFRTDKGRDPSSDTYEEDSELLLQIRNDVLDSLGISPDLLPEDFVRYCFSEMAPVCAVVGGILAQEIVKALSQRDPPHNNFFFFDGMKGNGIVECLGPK

Compound	Percent Inhibition (Concentration 0.111 μM)	IC50 (class symbols A/B/C) [nM]	Percent Inhibition (SAE inhibition at compound concentration 0.111 μM) [%]	IC50 (SAE inhibition, class symbols, legend in nM) [nM]	inhibition at 0.111 µM (Concentration 0.111 μM) [%]
C[C@@](O)(c1cccc(Br)c1)c1csc(C(=O)c2cncnc2N[C@@H]2C[C@H](COS(N)(=O)=O)[C@@H](O)C2)c1.C[C@](O)(c1cccc(Br)c1)c1csc(C(=O)c2cncnc2N[C@@H]2C[C@H](COS(N)(=O)=O)[C@@H](O)C2)c1 (mixture of isomers) [I-3, [(1R,2S,4R)-4-{[5-({4-[(1S)-1-(3-Bromophenyl)-1-hydroxyethyl]-2-thienyl}carbonyl)pyrimidin-4-yl]amino}-2-hydroxycyclopentyl]methyl sulfamate and [(1R,2S,4R)-4-{[5-({4-[(1R)-1-(3-Bromophenyl)-1-hydroxyethyl]-2-thienyl}carbonyl)pyrimidin-4-yl]amino}-2-hydroxycyclopentyl]methyl sulfamate]	100	< 10			
NS(=O)(=O)OC[C@H]1C[C@@H](Nc2ncncc2C(=O)c2cc([C@@H](O)c3cccc(Br)c3)c(Cl)s2)C[C@@H]1O (single isomer, unassigned) [I-16b, 1R,2S,4R)-4-{[5-({4-[(S)-(3-Bromophenyl)(hydroxy)methyl]-5-chloro-2-thienyl}carbonyl)pyrimidin-4-yl]amino}-2-hydroxycyclopentyl]methyl sulfamate or [(1R,2S,4R)-4-{[5-({4-[(R)-(3-Bromophenyl)(hydroxy)methyl]-5-chloro-2-thienyl}carbonyl)pyrimidin-4-yl]amino}-2-hydroxycyclopentyl]methyl sulfamate]	98	< 10			
C[C@](O)(c1cccc(Cl)c1)c1coc(C(=O)c2cncnc2N[C@@H]2C[C@H](COS(N)(=O)=O)[C@@H](O)C2)c1 (single isomer, unassigned) [I-30a, {(1R,2S,4R)-4-[(5-{4-[(1S)-1-(3-chlorophenyl)-1-hydroxyethyl]-2-furoyl}pyrimidin-4-yl)amino]-2-hydroxycyclopentyl}methyl sulfamate or {(1R,2S,4R)-4-[(5-{4-[(1R)-1-(3-chlorophenyl)-1-hydroxyethyl]-2-furoyl}pyrimidin-4-yl)amino]-2-hydroxycyclopentyl}methyl sulfamate]	100	< 10			
Cc1sc(C(=O)c2cncnc2N[C@@H]2C[C@H](COS(N)(=O)=O)[C@@H](O)C2)cc1[C@@H]1OCCc2ccsc21 (mixture of isomers) [I-269, [(1R,2S,4R)-4-{[5-({4-[(7S)-4,7-dihydro-5H-thieno[2,3-c]pyran-7-yl]-5-methyl-2-thienyl}carbonyl)pyrimidin-4-yl]amino}-2-hydroxycyclopentyl]methyl sulfamate and [(1R,2S,4R)-4-{[5-({4-[(7R)-4,7-dihydro-5H-thieno[2,3-c]pyran-7-yl]-5-methyl-2-thienyl}carbonyl)pyrimidin-4-yl]amino}-2-hydroxycyclopentyl]methyl sulfamate]	99	< 10			
NS(=O)(=O)OCC1CC(Nc2ncncc2C(=O)c2cc(C(O)c3cc(Br)ccc3F)cs2)CC1O (mixture of isomers) [I-19, [(1R,2S,4R)-4-{[5-({4-[(R)-(5-bromo-2-fluorophenyl)(hydroxy)methyl]-2-thienyl}carbonyl)pyrimidin-4-yl]amino}-2-hydroxycyclopentyl]methyl sulfamate and [(1R,2S,4R)-4-{[5-({4-[(S)-(5-bromo-2-fluorophenyl)(hydroxy)methyl]-2-thienyl}carbonyl)pyrimidin-4-yl]amino}-2-hydroxycyclopentyl]methyl sulfamate]	100	< 10			
NS(=O)(=O)OC[C@H]1C[C@@H](Nc2ncncc2C(=O)c2cc([C@@H]3NCc4ccc(Cl)cc43)c(Cl)s2)C[C@@H]1O (mixture of isomers) [I-262, [(1R,2S,4R)-4-{[5-({5-chloro-4-[(1R)-6-chloro-2,3-dihydro-1H-isoindol-1-yl]-2-thienyl}carbonyl)pyrimidin-4-yl]amino}-2-hydroxycyclopentyl]methyl sulfamate and [(1R,2S,4R)-4-{[5-({5-chloro-4-[(1S)-6-chloro-2,3-dihydro-1H-isoindol-1-yl]-2-thienyl}carbonyl)pyrimidin-4-yl]amino}-2-hydroxycyclopentyl]methyl sulfamate]	100	< 10			
NS(=O)(=O)OC[C@H]1C[C@@H](Nc2ncncc2C(=O)c2cc([C@@]3(c4cccc(Cl)c4)CCCN3)cs2)C[C@@H]1O (mixture of isomers) [I-38, [(1R,2S,4R)-4-{[5-({4-[(2S)-2-(3-chlorophenyl)pyrrolidin-2-yl]-2-thienyl}carbonyl)pyrimidin-4-yl]amino}-2-hydroxycyclopentyl]methyl sulfamate and [(1R,2S,4R)-4-{[5-({4-[(2R)-2-(3-chlorophenyl)pyrrolidin-2-yl]-2-thienyl}carbonyl)pyrimidin-4-yl]amino}-2-hydroxycyclopentyl]methyl sulfamate]	101	< 10			
NS(=O)(=O)OC[C@H]1C[C@@H](Nc2ncncc2C(=O)c2cc([C@@H]3NCCc4ccc(Br)cc43)c(Cl)s2)[C@H](O)[C@@H]1O (mixture of isomers) [I-259, [(1R,2R,3S,4R)-4-{[5-({4-[(1R)-7-bromo-1,2,3,4-tetrahydroisoquinolin-1-yl]-5-chloro-2-thienyl}carbonyl)pyrimidin-4-yl]amino}-2,3-dihydroxycyclopentyl]methyl sulfamate and [(1R,2R,3S,4R)-4-{[5-({4-[(1S)-7-bromo-1,2,3,4-tetrahydroisoquinolin-1-yl]-5-chloro-2-thienyl}carbonyl)pyrimidin-4-yl]amino}-2,3-dihydroxycyclopentyl]methyl sulfamate]	99	< 10			
NS(=O)(=O)OC[C@H]1C[C@@H](Nc2ncncc2C(=O)c2cc([C@@H]3NCCc4ccc(Cl)cc43)c(Cl)s2)[C@H](O)[C@@H]1O (single isomer, unassigned) [I-249b, [(1R,2R,3S,4R)-4-{[5-({5-chloro-4-[(1R)-7-chloro-1,2,3,4-tetrahydroisoquinolin-1-yl]-2-thienyl}carbonyl)pyrimidin-4-yl]amino}-2,3-dihydroxycyclopentyl]methyl sulfamate or [(1R,2R,3S,4R)-4-{[5-({5-chloro-4-[(1S)-7-chloro-1,2,3,4-tetrahydroisoquinolin-1-yl]-2-thienyl}carbonyl)pyrimidin-4-yl]amino}-2,3-dihydroxycyclopentyl]methyl sulfamate]	92	< 10			
CN1Cc2ccc(Cl)cc2[C@@H]1c1cc(C(=O)c2cncnc2N[C@@H]2C[C@H](COS(N)(=O)=O)[C@@H](O)C2)sc1Cl (single isomer, unassigned) [I-284a, [(1R,2S,4R)-4-{[5-({5-chloro-4-[(1R)-6-chloro-2-methyl-2,3-dihydro-1H-isoindol-1-yl]-2-thienyl}carbonyl)pyrimidin-4-yl]amino}-2-hydroxycyclopentyl]methyl sulfamate or [(1R,2S,4R)-4-{[5-({5-chloro-4-[(1S)-6-chloro-2-methyl-2,3-dihydro-1H-isoindol-1-yl]-2-thienyl}carbonyl)pyrimidin-4-yl]amino}-2-hydroxycyclopentyl]methyl sulfamate]			49	100 to 1000	
CC(=O)c1csc(C(=O)c2cncnc2N[C@@H]2C[C@H](COS(N)(=O)=O)[C@@H](O)C2)c1 [I-229, [(1R,2S,4R)-4-{(5-[(4-Acetyl-2-thienyl)carbonyl]pyrimidin-4-yl}amino)-2-hydroxycyclopentyl]methyl sulfamate]		100 to 1000			25
CC(O)(c1cccc(Br)c1)c1csc(C(=O)c2cncnc2N[C@@H]2C[C@H](COS(N)(=O)=O)[C@@H](O)C2)c1 (single isomer, unassigned) [I-3b, [(1R,2S,4R)-4-{[5-({4-[(1R)-1-(3-bromophenyl)-1-hydroxyethyl]-2-thienyl}carbonyl)pyrimidin-4-yl]amino}-2-hydroxycyclopentyl]methyl sulfamate or [(1R,2S,4R)-4-{[5-({4-[(1S)-1-(3-bromophenyl)-1-hydroxyethyl]-2-thienyl}carbonyl)pyrimidin-4-yl]amino}-2-hydroxycyclopentyl]methyl sulfamate]	100	< 10			
NS(=O)(=O)OC[C@H]1C[C@@H](Nc2ncncc2C(=O)c2cc([C@@H]3OCCc4ccc(F)cc43)cs2)C[C@@H]1O (single isomer, unassigned) [I-267b, [(1R,2S,4R)-4-{[5-({4-[(1R)-7-fluoro-3,4-dihydro-1H-isochromen-1-yl]-2-thienyl}carbonyl)pyrimidin-4-yl]amino}-2-hydroxycyclopentyl]methyl sulfamate or [(1R,2S,4R)-4-{[5-({4-[(1S)-7-fluoro-3,4-dihydro-1H-isochromen-1-yl]-2-thienyl}carbonyl)pyrimidin-4-yl]amino}-2-hydroxycyclopentyl]methyl sulfamate]	100	< 10			
NC(c1cccc(Br)n1)c1cc(C(=O)c2cncnc2NC2CC(O)C(COS(N)(=O)=O)C2)sc1Cl (mixture of isomers) [I-18, [(1R,2S,4R)-4-{[5-({4-[(R)-amino(6-bromopyridin-2-yl)methyl]-5-chloro-2-thienyl}carbonyl)pyrimidin-4-yl]amino}-2-hydroxycyclopentyl]methyl sulfamate and [(1R,2S,4R)-4-{[5-({4-[(S)-amino(6-bromopyridin-2-yl)methyl]-5-chloro-2-thienyl}carbonyl)pyrimidin-4-yl]amino}-2-hydroxycyclopentyl]methyl sulfamate]	99	< 10			
NS(=O)(=O)OC[C@H]1C[C@@H](Nc2ncncc2C(=O)c2cc(COc3ccccc3Cl)cs2)C[C@@H]1O [I-129, [(1R,2S,4R)-4-{[5-({4-[(2-chlorophenoxy)methyl]-2-thienyl}carbonyl)pyrimidin-4-yl]amino}-2-hydroxycyclopentyl]methyl sulfamate]		< 10			95
